In the kinase profiling compilation of Christmann-Franck et al. (2016) one finds kinase still bound, per cent of control data, which are given here for 14 compounds.

Targets include CDK2 (human) (UniProt P24941); PRKCQ (human) (UniProt Q04759); CSNK1G2 (human) (UniProt P78368); FYN (human) (UniProt P06241); ABL1 (human) (UniProt P00519); FLT1 (human) (UniProt P17948); MAPK11 (human) (UniProt Q15759); BMX (human) (UniProt P51813); NUAK1 (human) (UniProt O60285); MAP2K6 (human) (UniProt P52564); ACVRL1 (human) (UniProt P37023); CAMK1G (human) (UniProt Q96NX5); MAP3K4 (human) (UniProt Q9Y6R4); SRMS (human) (UniProt Q9H3Y6); MAP3K3 (human) (UniProt Q99759); NTRK3 (human) (UniProt Q16288); PRKACB (human) (UniProt P22694); STK32C (human) (UniProt Q86UX6); PRKCE (human) (UniProt Q02156); STK4 (human) (UniProt Q13043); CHEK1 (human) (UniProt O14757); PHKG1 (human) (UniProt Q16816); CDK14 (human) (UniProt O94921); LIMK1 (human) (UniProt P53667); CDK8 (human) (UniProt P49336); FES (human) (UniProt P07332); PLK1 (human) (UniProt P53350); SRPK1 (human) (UniProt Q96SB4); CSK (human) (UniProt P41240); TESK1 (human) (UniProt Q15569); RPS6KA1 KD1 (human) (UniProt Q15418); CDK15 (human) (UniProt Q96Q40); TGFBR1 (human) (UniProt P36897); ERBB4 (human) (UniProt Q15303); LCK (human) (UniProt P06239); LTK (human) (UniProt P29376); PIK3CB (human) (UniProt P42338); RPS6KA4 KD1 (human) (UniProt O75676); PTK6 (human) (UniProt Q13882); SIK2 (human) (UniProt Q9H0K1); RIPK1 (human) (UniProt Q13546); MERTK (human) (UniProt Q12866).

Common to all, as to experiment: KINOMEscan competition binding
Holding throughout (conditions): compound 10.0 µM

SIK2 (human), sequence (Q9H0K1 whole entry, looked up): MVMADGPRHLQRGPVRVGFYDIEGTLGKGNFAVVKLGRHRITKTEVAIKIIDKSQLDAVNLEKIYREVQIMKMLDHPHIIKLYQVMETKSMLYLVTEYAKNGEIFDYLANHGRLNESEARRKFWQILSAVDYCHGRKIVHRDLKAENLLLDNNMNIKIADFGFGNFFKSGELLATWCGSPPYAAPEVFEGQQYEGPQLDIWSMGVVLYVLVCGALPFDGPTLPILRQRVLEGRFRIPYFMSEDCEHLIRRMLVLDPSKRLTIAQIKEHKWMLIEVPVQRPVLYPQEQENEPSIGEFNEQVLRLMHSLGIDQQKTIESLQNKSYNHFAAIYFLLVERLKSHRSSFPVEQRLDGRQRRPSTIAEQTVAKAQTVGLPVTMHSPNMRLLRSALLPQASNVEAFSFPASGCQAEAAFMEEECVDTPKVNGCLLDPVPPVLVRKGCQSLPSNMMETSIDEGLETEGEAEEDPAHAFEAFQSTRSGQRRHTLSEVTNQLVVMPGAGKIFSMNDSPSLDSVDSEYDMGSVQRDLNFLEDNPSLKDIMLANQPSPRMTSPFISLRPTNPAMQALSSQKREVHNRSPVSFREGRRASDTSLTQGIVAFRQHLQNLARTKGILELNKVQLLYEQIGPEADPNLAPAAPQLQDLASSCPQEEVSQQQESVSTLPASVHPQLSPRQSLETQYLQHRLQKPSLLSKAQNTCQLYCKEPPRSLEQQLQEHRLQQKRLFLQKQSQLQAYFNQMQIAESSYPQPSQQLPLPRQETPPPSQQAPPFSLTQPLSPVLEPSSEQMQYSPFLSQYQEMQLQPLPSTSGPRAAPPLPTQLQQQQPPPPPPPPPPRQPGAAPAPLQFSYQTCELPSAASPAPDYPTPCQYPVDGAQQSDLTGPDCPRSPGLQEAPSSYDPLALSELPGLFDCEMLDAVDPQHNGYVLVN
CAMK1G (human), sequence (Q96NX5 whole entry, looked up): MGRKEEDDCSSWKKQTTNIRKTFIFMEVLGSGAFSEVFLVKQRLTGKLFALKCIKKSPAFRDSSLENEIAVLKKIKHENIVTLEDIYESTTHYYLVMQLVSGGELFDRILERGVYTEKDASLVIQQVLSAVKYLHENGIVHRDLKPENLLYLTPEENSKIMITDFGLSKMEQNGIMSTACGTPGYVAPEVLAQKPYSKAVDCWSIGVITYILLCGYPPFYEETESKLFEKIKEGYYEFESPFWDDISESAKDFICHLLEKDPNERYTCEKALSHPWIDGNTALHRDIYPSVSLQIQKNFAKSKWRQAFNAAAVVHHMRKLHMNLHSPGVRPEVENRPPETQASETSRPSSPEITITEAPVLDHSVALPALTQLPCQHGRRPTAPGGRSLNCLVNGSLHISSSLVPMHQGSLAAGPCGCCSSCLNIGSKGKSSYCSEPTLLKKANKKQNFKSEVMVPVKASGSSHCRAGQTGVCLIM
PLK1 (human), sequence (P53350 whole entry, looked up): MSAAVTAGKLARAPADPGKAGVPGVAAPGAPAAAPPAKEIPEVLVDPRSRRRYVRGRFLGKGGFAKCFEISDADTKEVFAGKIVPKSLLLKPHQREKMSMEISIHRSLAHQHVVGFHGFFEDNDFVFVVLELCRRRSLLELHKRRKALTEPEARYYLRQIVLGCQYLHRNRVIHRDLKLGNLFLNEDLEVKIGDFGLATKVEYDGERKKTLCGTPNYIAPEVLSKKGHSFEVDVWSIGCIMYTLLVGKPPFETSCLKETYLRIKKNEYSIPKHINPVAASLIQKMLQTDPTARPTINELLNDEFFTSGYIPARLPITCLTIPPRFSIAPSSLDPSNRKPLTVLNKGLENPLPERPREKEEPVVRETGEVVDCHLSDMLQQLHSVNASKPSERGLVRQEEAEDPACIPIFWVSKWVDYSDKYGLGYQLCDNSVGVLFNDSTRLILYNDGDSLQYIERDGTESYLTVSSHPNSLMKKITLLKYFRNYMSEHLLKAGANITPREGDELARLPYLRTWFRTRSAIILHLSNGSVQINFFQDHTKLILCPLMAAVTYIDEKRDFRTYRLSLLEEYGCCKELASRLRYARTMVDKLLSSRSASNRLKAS
CSK (human), sequence (P41240 whole entry, looked up): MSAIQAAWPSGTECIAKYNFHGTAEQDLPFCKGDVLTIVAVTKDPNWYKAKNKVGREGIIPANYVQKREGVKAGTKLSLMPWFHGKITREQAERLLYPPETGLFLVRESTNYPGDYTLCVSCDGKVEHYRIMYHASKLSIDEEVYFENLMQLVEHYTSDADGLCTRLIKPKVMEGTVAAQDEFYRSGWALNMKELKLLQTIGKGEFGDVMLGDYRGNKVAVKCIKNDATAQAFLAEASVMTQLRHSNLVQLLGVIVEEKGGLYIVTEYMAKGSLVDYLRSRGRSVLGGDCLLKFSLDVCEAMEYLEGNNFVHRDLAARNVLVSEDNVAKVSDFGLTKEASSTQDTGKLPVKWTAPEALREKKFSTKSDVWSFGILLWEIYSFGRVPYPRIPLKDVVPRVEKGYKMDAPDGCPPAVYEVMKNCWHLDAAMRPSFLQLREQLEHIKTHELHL
SRPK1 (human), sequence (Q96SB4 whole entry, looked up): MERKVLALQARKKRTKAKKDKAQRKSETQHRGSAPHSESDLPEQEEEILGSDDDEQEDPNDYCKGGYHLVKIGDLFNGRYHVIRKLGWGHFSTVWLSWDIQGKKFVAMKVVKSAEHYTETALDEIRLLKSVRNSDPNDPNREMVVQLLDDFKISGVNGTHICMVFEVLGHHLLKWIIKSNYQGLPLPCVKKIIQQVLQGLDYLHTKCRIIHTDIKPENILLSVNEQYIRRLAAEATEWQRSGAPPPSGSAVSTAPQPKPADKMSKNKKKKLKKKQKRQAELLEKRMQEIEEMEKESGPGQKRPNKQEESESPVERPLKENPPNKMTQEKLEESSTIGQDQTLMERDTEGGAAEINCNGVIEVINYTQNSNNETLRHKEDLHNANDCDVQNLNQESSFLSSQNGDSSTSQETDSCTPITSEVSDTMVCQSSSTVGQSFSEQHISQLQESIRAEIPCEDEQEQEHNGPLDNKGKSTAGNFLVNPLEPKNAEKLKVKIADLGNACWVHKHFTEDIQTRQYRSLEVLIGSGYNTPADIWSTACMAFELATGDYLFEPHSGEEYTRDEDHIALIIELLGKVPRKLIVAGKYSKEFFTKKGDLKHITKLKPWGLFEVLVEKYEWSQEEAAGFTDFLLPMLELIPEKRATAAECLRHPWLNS
CSNK1G2 (human), sequence (P78368 whole entry, looked up): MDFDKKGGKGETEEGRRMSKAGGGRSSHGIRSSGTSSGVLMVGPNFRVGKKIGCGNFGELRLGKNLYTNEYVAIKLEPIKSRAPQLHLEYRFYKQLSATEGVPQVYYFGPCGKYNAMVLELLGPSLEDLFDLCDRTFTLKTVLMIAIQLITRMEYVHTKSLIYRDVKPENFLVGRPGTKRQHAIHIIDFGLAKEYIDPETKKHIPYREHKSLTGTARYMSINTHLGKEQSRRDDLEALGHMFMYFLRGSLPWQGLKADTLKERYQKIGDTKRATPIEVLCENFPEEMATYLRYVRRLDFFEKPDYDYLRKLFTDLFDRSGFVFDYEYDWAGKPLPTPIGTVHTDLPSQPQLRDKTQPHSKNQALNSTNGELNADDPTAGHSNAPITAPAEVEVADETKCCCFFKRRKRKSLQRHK
CHEK1 (human), sequence (O14757 whole entry, looked up): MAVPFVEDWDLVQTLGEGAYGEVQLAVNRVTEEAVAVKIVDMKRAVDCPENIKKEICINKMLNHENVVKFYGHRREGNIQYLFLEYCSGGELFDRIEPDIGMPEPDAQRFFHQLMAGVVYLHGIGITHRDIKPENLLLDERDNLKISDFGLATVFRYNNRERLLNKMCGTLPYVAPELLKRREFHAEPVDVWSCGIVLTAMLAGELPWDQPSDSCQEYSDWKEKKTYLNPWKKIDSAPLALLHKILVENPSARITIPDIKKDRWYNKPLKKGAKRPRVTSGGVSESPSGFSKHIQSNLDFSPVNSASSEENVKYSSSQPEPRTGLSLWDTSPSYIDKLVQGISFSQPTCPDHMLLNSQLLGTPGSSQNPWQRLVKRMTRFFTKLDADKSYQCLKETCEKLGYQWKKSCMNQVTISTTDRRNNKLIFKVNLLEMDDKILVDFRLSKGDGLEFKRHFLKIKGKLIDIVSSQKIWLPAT
CDK14 (human), sequence (O94921 whole entry, looked up): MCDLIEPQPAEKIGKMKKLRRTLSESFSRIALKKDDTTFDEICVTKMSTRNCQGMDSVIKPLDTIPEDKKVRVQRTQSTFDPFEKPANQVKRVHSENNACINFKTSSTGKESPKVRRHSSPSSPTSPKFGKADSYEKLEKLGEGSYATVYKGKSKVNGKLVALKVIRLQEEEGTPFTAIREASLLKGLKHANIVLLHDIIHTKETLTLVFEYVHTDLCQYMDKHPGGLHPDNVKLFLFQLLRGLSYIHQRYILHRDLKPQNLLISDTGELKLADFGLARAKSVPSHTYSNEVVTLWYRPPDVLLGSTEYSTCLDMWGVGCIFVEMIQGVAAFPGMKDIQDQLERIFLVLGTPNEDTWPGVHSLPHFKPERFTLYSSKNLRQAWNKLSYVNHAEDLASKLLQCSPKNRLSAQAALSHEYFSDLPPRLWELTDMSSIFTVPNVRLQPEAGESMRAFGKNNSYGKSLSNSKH
TGFBR1 (human), sequence (P36897 whole entry, looked up): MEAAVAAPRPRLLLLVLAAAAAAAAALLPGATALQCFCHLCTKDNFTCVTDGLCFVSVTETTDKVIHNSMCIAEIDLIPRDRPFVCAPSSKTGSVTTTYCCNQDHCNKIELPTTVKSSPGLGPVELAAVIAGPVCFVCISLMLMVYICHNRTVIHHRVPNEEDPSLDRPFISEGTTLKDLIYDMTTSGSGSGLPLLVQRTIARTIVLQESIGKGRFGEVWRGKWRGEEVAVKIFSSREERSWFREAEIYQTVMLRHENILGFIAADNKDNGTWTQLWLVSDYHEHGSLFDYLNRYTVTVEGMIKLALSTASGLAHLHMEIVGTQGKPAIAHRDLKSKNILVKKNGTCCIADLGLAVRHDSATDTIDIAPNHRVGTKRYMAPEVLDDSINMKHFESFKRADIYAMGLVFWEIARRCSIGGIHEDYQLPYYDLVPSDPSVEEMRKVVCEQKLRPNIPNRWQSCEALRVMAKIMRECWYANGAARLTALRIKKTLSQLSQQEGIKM

Regarding `O=C1NC(=O)/C(=C/c2c[nH]c(=O)c(-c3ccc(N4CCNCC4)nc3)c2)S1`, the kinase still bound, per cent of control on CDK2 (human) worked out at 73%; on PRKCQ (human) it was 44%; on CSNK1G2 (human), 3.6%; at FYN (human) it was 92%; on ABL1 (human) it was 91%; at FLT1 (human), 93%. The kinase still bound, per cent of control stood at 82% on MAPK11 (human); 94% at BMX (human); 77% on NUAK1 (human); 100% on MAP2K6 (human); 100% on ACVRL1 (human); 85% at CAMK1G (human). Also, the kinase still bound, per cent of control on MAP3K4 (human) came out at 14%; at SRMS (human) it was 86%; at MAP3K3 (human), 9.9%; on NTRK3 (human), 88%; at PRKACB (human), 100%; on STK32C (human) it was 100%. In addition, the kinase still bound, per cent of control stood at 56% on PRKCE (human); 96% at STK4 (human); 2.4% at CHEK1 (human); 29% on PHKG1 (human); 73% at CDK14 (human); 94% on LIMK1 (human). The kinase still bound, per cent of control was 44% at CDK8 (human); 100% on FES (human); 46% at PLK1 (human); 25% at SRPK1 (human); 80% at CSK (human); 100% on TESK1 (human). In addition, the kinase still bound, per cent of control at RPS6KA1 KD1 (human) worked out at 71%; at CDK15 (human), 50%; at TGFBR1 (human), 48%; on ERBB4 (human), 68%; on LCK (human), 100%; on LTK (human) it was 100%. For the same compound, the kinase still bound, per cent of control at PIK3CB (human) is 4.8%; at RPS6KA4 KD1 (human), 100%; at PTK6 (human), 83%; on SIK2 (human), 76%; at RIPK1 (human), 82%; at MERTK (human), 83%.

Take `N=C1NC(=O)/C(=C/c2ccc(-c3ccc(F)cc3O)o2)S1`: the kinase still bound, per cent of control on CDK2 (human) came to 6.6%; at CDK14 (human), 19%; on SRPK1 (human), 25%; on CDK15 (human), 9.4%.

For the compound `O=C1NC(=S)S/C1=C\c1ccc(-c2cncc3ccccc23)o1`, the kinase still bound, per cent of control is 28% at FLT1 (human); 24% at MAP2K6 (human); 34% at CAMK1G (human); 32% at NTRK3 (human); 10% on CDK8 (human); 33% on CSK (human). This compound displayed a kinase still bound, per cent of control at LTK (human) of 13%.

As to `CS(=O)(=O)Nc1ccc(-c2cc(/C=C3\SC(=N)NC3=O)c[nH]c2=O)cc1`, the figures for the kinase still bound, per cent of control on CHEK1 (human) and at TGFBR1 (human) were 32% and 24%, respectively.

Turning to `Nc1cccc(-c2cc(/C=C3\SC(=O)NC3=O)c[nH]c2=O)c1`, the values for the kinase still bound, per cent of control at CSNK1G2 (human) and at PLK1 (human) were 19% and 1.8%, respectively.

Regarding `N=C1NC(=O)/C(=C/c2ccc(-c3ccccc3O)o2)S1`, the kinase still bound, per cent of control on CDK2 (human) came out at 20%; on CDK15 (human), 34%.

`CS(=O)(=O)Nc1ccc(-c2ncc(/C=C3\SC(=N)NC3=O)s2)cc1`: the kinase still bound, per cent of control came out at 14% on CSNK1G2 (human) and 27% at ABL1 (human).

As for `N=C1NC(=O)/C(=C/c2ccc(-c3ccc(C(N)=O)cc3O)o2)S1`, the kinase still bound, per cent of control was determined as 19% on CDK2 (human), 33% at SRMS (human), 18% on CDK14 (human) and 13% at CDK15 (human).

As to `CN1C(=O)[C@H]2CCC[C@H]2N(C2CCCC2)c2nc(Nc3ccc(C(N)=O)cc3)ncc21`, the values for the kinase still bound, per cent of control at PLK1 (human), at RPS6KA1 KD1 (human) and on MERTK (human) were 0.65%, 11% and 6.8%, respectively.

With `N=C1NC(=O)/C(=C/c2ccc(-c3cncc4ccccc34)o2)S1`, the kinase still bound, per cent of control at CAMK1G (human) was determined as 18%; on PHKG1 (human), 23%; at CDK8 (human) it was 11%; on SRPK1 (human) it was 15%; on CSK (human), 12%; at RPS6KA1 KD1 (human), 30%. Besides, the kinase still bound, per cent of control was 34% at TGFBR1 (human), 15% on RPS6KA4 KD1 (human) and 27% on SIK2 (human).

For `CSC1=NC(=O)/C(=C/c2c[nH]c(=O)c(-c3ccc(NS(C)(=O)=O)cc3)c2)S1`, the kinase still bound, per cent of control on PLK1 (human) amounted to 17%.

Regarding `N=C1NC(=O)/C(=C/c2ccc(-c3csc4ccccc34)o2)S1`, the kinase still bound, per cent of control at NUAK1 (human) stood at 31%.

For `CS(=O)(=O)Nc1ccc(-c2cncc(/C=C3\SC(=N)NC3=O)c2)cc1`, the kinase still bound, per cent of control at CSNK1G2 (human) was determined as 0.75%; at ABL1 (human), 34%; on ACVRL1 (human) it was 3.6%; at SRPK1 (human), 11%; on TGFBR1 (human) it was 16%; on SIK2 (human) it was 24%.

At CHEK1 (human), `N=C1NC(=O)/C(=C/c2c[nH]c(=O)c(-c3ccc(N4CCNCC4)nc3)c2)S1` showed a kinase still bound, per cent of control of 3.4%.
